Patent publication US20250351832A1, “PHYTOCHEMICALS AS BIOPESTICIDES AND BIOSTIMULANTS” (KAY BEE BIO ORGANICS PVT. LTD., priority 2024, published 2025)
Where two headings read alike, the source gives them in different places.

What was measured:
Thrips [1] = details: 48 h
Aphid [2] = details: 48 h, 1 mL or g/L
Mite [3] = assay: Green house effect on mite, okra plants (Ex. 23); details: in vivo
tomato seedlings = assay: Response of tomato plants, greenhouse growth (Ex. 30); type: in vivo; details: for CCI 5th Day / Plant Height 5th Day / Stem Girth 5th Day: 120 h; for CCI 10th Day / Plant Height 10th Day / Root Length % Increase over control / Stem Girth 10th Day: 240 h
Mite [4] = details: Dose 1 ml/gm/lit.; 48 hrs
Spodoptera litura [5] = assay: Controlled conditions, Spodoptera litura on cabbage plants (Ex. 26); details: in vivo
Aphid [6] = system: Aphid
Aphid [7] = assay: whole plant or invertebrate; details: 48 h
Alternaria alternata = assay: In vitro poisoned food technique against fungus (Ex. 20); type: cell-based
Spodoptera litura [8] = details: Spodoptera litura 3rd instar on cabbage plants; dose 1 ml/gm/lit. spray; 72 hrs after application
[9] = cited from earlier work; for Phytotonic Effect: Table 13, effect on plants, descriptive
Thrips [10] = assay: whole plant or invertebrate; details: in Gossypium hirsutum, 48 h
Thrips [11] = assay: Greenhouse effect on thrips, cotton plants (Ex. 27); details: in vivo
Spodoptera litura [12] = details: 72 h, 1 mL or g/L
Spodoptera litura [13] = assay: whole plant or invertebrate; details: 72 h
Mealy Bug [14] = assay: In vitro bio-efficacy against mealy bug (Ex. 16); details: in vivo
Thrips [15] = details: 48 h, 1 mL or g/L
Helicoverpa armigera [16] = details: Helicoverpa armigera on okra fruits, dose 1 ml/gm/lit., 72 Hrs.
Mite [17] = details: mite on okra plants, green house; dose 1 ml/gm/lit. spray; 48 hrs after application
chili seedlings = assay: Response of chili plants, greenhouse growth (Ex. 31); type: in vivo; details: for CCI 5th Day / Plant Height (cm) 5th Day: 120 h; for CCI 10th Day / Plant Height (cm) 10th Day / Root Lenght % Increase over control: 240 h; for CCI % Increase over pre on 10th Day / Plant Height % Increase over pre on 10th Day / Root Lenght (cm) 10th Day / Stem Girth % Increase over pre on 10th Day: chili seedlings, dose 1 ml/gm/lit
Helicoverpa armigera [18] = details: Helicoverpa armigera 3rd instar on chickpea plants, dose 1 ml/gm/lit. spray
Mealy Bug [19] = assay: Green house effect on mealy bugs, cotton plants (Ex. 24); details: in vivo
Helicoverpa armigera [20] = assay: In vitro bio-efficacy against Helicoverpa armigera (Ex. 17); details: in vivo
Helicoverpa armigera [21] = assay: Controlled conditions, Helicoverpa armigera on chickpea plants (Ex. 25); details: in vivo
[22] = tomato seedlings, 10th day, dose 1 ml/gm/lit
[23] = tomato seedlings, dose 1 ml/gm/lit, 10th day
[24] = read-out: % Corrected Mortality at 48 Hrs.
[25] = read-out: % Mortality at 48 Hrs.
[26] = Table 13, descriptive, no test described
[27] = read-out: % Corrected Mortality at 72 Hrs.
[28] = read-out: % Mortality at 72 Hrs.

In the case of `C=C(C)[C@H]1CC=C(C)CC1` [D-limonene], the “Total No. of dead insect at 48 Hrs.” value (Thrips [1]) is reported as 37.50, the “Total No. of dead insect at 48 Hrs.” value (Aphid [2]) is reported as 62.50 and the “% Corrected Mortality at 48 Hrs.” value (Mite [3]) is reported as 50.00%. For the same compound, the “CCI Pre” value (tomato seedlings) was 11.59, the “Plant Height Pre” value (tomato seedlings) was 5.52 cm and the “Stem Girth Pre” value (tomato seedlings) was 1.30 mm. The “CCI 5th Day” value (tomato seedlings) was 13.66, the “Plant Height 5th Day” value (tomato seedlings) was 6.44 cm and the “Stem Girth 5th Day” value (tomato seedlings) was 1.98 mm. The “CCI 10th Day” value (tomato seedlings) was 15.54, the “Plant Height 10th Day” value (tomato seedlings) was 7.56 cm and the “Root Length % Increase over control” value (tomato seedlings) was 25.57%. The “Stem Girth 10th Day” value (tomato seedlings) was 2.21 mm, the “Plant Height % Increase over pre on 10th Day” value (“Plant Height % Increase” below) (tomato seedlings; [22]) was 36.96% and the “Stem Girth % Increase over pre on 10th Day” value (shortened to “Stem Girth % Increase”) (tomato seedlings; [22]) was 69.48%. The “CCI % Increase over pre on 10th Day” value (tomato seedlings; [23]) was 34.08%, the “% Corrected Mortality at 48 Hrs.” value (Mite [4]) was 45.95% and the “% Mortality at 48 Hrs.” value (Mite [4]) was 50.00%. The “% Corrected Mortality at 72 Hrs.” value (Spodoptera litura [5]) was 23.68%, the “Total No. of dead insect at 48 Hrs.” value (Aphid [6]) was 6.25 and the “% Corrected Mortality at 48 Hrs.” value (Aphid [6]; Dose 1 ml/gm/lit., 48 hrs) was 57.14%. The mortality at 1 mL or g/L (Aphid [7]; [24]) was 55.9%, the mortality at 1 mL or g/L (Aphid [7]; [25]) was 62.5% and the inhibition of growth at 1 mL or g/L (Alternaria alternata; […]) was 46.6%. The “% Mortality at 72 Hrs.” value (Spodoptera litura [8]) was 27.50%, the “Acaricidal Activity - Mode of action” value [9, 26] was “Ovicidal, repellent activity” and the “Antioxidant Activity - Mode of action” value [9, 26] was “Possesses antioxidant”. The “Virucidal Activity - Mode of action” value [9, 26] was “Exhibits viricidal activities”, the “Phytotonic Effect” value [9] was “Exhibits plant” and the mortality at 1 mL or g/L (Thrips [10]; [24]) was 28.6%. For the same compound, the mortality at 1 mL or g/L (Thrips [10]; [25]) was 37.5%, the “% Corrected Mortality at 48 Hrs.” value (Thrips [11]) was 30.56% and the “Total No. of dead insect at 72 Hrs.” value (Spodoptera litura [12]) was 2.50. The mortality at 1 mL or g/L (Spodoptera litura [13]; [27]) was 21.1%, the mortality at 1 mL or g/L (Spodoptera litura [13]; [28]) was 25% and the “% Corrected Mortality at 48 Hrs.” value (Mealy Bug [14]) was 39.47%. The “% Mortality at 48 Hrs.” value (Mealy Bug [14]) was 42.50%, the “Total No. of dead insect at 48 Hrs.” value (Thrips [15]) was 3.75 and the “% Mortality at 72 Hrs.” value (Helicoverpa armigera [16]) was 32.50%. For the same compound, the “% Corrected Mortality at 72 Hrs.” value (Helicoverpa armigera [16]; corrected for water control) was 32.50%, the “% Mortality at 48 Hrs.” value (Mite [17]) was 52.50% and the “CCI Pre” value (chili seedlings) was 10.30. The “Plant Height (cm) Pre” value (chili seedlings) was 4.90 cm, the “CCI 5th Day” value (chili seedlings) was 13.60 and the “Plant Height (cm) 5th Day” value (chili seedlings) was 6.97 cm. For the same compound, the “CCI 10th Day” value (chili seedlings) was 17.4, the “Plant Height (cm) 10th Day” value (chili seedlings) was 8.24 cm and the “Root Lenght % Increase over control” value (chili seedlings) was 61.51%. The “CCI % Increase over pre on 10th Day” value (chili seedlings) was 68.93%, the “Plant Height % Increase” value (chili seedlings) was 68.16% and the “Root Lenght (cm) 10th Day” value (chili seedlings) was 4.42 cm. The “Stem Girth % Increase” value (chili seedlings) was 60.00%, the “% Mortality at 72 Hrs.” value (Helicoverpa armigera [18]; 72 hrs after application) was 32.50% and the “% Corrected Mortality at 72 Hrs.” value (Helicoverpa armigera [18]; 72 hrs, corrected for water control) was 32.50%. The “% Corrected Mortality at 48 Hrs.” value (Mealy Bug [19]) was 38.89% and the “% Mortality at 48 Hrs.” value (Mealy Bug [19]) was 45.00%.

With `C=CCc1ccc(O)c(OC)c1` [Eugenol] the “Total No. of dead insect at 48 Hrs.” value (Thrips [1]) was 27.50, the “Total No. of dead insect at 48 Hrs.” value (Aphid [2]) was 65.00 and the “% Corrected Mortality at 48 Hrs.” value (Mite [3]) was 50.00%. The “% Mortality at 48 Hrs.” value (Mite [3]) was 52.50%, the “CCI Pre” value (tomato seedlings) was 11.50 and the “Plant Height Pre” value (tomato seedlings) was 5.65 cm. The “Stem Girth Pre” value (tomato seedlings) was 1.34 mm, the “CCI 5th Day” value (tomato seedlings) was 13.74 and the “Plant Height 5th Day” value (tomato seedlings) was 6.66 cm. The “Stem Girth 5th Day” value (tomato seedlings) was 1.70 mm, the “CCI 10th Day” value (tomato seedlings) was 15.48 and the “Plant Height 10th Day” value (tomato seedlings) was 7.56 cm. The “Root Length % Increase over control” value (tomato seedlings) was 31.25%, the “Stem Girth 10th Day” value (tomato seedlings) was 2.31 mm and the “Plant Height % Increase” value (tomato seedlings; [22]) was 33.81%. The “Stem Girth % Increase” value (tomato seedlings; [22]) was 72.90%, the “CCI % Increase over pre on 10th Day” value (tomato seedlings; [23]) was 34.61% and the “Root Length (cm) 10th Day” value (tomato seedlings; [23]) was 4.37 cm. For the same compound, the “% Corrected Mortality at 48 Hrs.” value (Mite [4]) was 48.65%, the “% Corrected Mortality at 72 Hrs.” value (Spodoptera litura [5]) was 60.53% and the “% Mortality at 72 Hrs.” value (Spodoptera litura [5]) was 62.50%. For the same compound, the “% Corrected Mortality at 72 Hrs.” value (Helicoverpa armigera [20]) was 47.50%, the “% Mortality at 72 Hrs.” value (Helicoverpa armigera [20]) was 47.50% and the “Total No. of dead insect at 48 Hrs.” value (Aphid [6]) was 6.00. The “% Corrected Mortality at 48 Hrs.” value (Aphid [6]; Dose 1 ml/gm/lit., 48 hrs) was 54.29%, the “% Mortality at 48 Hrs.” value (Aphid [6]; Dose 1 ml/gm/lit., 48 hrs) was 60.00% and the mortality at 1 mL or g/L (Aphid [7]; [24]) was 58.8%. The mortality at 1 mL or g/L (Aphid [7]; [25]) was 65%, the inhibition of growth at 1 mL or g/L (Alternaria alternata; poisoned food technique, PDA medium, dose 1 ml/gm/lit., after seven days, vs untreated control, read-out: % Inhibition of growth) was 42.6% and the “% Corrected Mortality at 72 Hrs.” value (Helicoverpa armigera [21]) was 42.50%. The “% Mortality at 72 Hrs.” value (Helicoverpa armigera [21]) was 42.50%, the “Acaricidal Activity - Mode of action” value [9, 26] was “Inhibitory effects against” and the “Antifungal Activity - Mode of action” value [9, 26] was “Inhibition of myceial growth”. The “Antioxidant Activity - Mode of action” value [9, 26] was “Scavenge free radicals,”, the “Bactericidal Activity - Mode of action” value [9, 26] was “Alters membrane permeability” and the “Insecticidal Activities - Mode of action” value [9, 26] was “Growth inhibitory,”. For the same compound, the “Nematicidal Activity - Mode of action” value [9, 26] was “Inhibited egg differentiation”, the “Virucidal Activity - Mode of action” value [9, 26] was “Inactivated the cell-free” and the “Phytotonic Effect” value [9] was “Regulating”. For the same compound, the mortality at 1 mL or g/L (Thrips [10]; [24]) was 14.3%, the mortality at 1 mL or g/L (Thrips [10]; [25]) was 25% and the “% Corrected Mortality at 48 Hrs.” value (Thrips [11]) was 19.44%. The “% Mortality at 48 Hrs.” value (Thrips [11]) was 27.50%, the “Total No. of dead insect at 72 Hrs.” value (Spodoptera litura [12]) was 6.00 and the mortality at 1 mL or g/L (Spodoptera litura [13]; [27]) was 57.9%. The mortality at 1 mL or g/L (Spodoptera litura [13]; [28]) was 60%, the “% Corrected Mortality at 48 Hrs.” value (Mealy Bug [14]) was 63.16% and the “% Mortality at 48 Hrs.” value (Mealy Bug [14]) was 65.00%. For the same compound, the “Total No. of dead insect at 48 Hrs.” value (Thrips [15]) was 2.50, the “CCI Pre” value (chili seedlings) was 10.10 and the “Plant Height (cm) Pre” value (chili seedlings) was 4.57 cm. The “CCI 5th Day” value (chili seedlings) was 13.40, the “Plant Height (cm) 5th Day” value (chili seedlings) was 6.53 cm and the “CCI 10th Day” value (chili seedlings) was 15.48. The “Plant Height (cm) 10th Day” value (chili seedlings) was 7.59 cm, the “Root Lenght % Increase over control” value (chili seedlings) was 52.07% and the “CCI % Increase over pre on 10th Day” value (chili seedlings) was 53.27%. The “Plant Height % Increase” value (chili seedlings) was 66.08%, the “Root Lenght (cm) 10th Day” value (chili seedlings) was 4.16 cm and the “Stem Girth % Increase” value (chili seedlings) was 54.59%. For the same compound, the “% Corrected Mortality at 48 Hrs.” value (Mealy Bug [19]) was 72.22% and the “% Mortality at 48 Hrs.” value (Mealy Bug [19]) was 75.00%.
